Test results published in patent US20250388604A1, “Compounds and Their Use as PDE4 Activators” (Mironid Limited, priority 2022, published 2025).

Test system: m-IMCD3 cells
Assay: Inhibition of PGE2-stimulated in vitro cyst formation in m-IMCD3 cells
Assay type: cell-based, mouse
Conditions: Mus musculus, mIMCD3, 144 h, 3 μM; mean cyst area, 100% for (DMSO + PGE2) and 0% for DMSO control; 6 days of culture; read-out: % Cyst area after incubation with 3 μM test compound
Method in brief: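 Mean cyst area after 6 days, expressed relative to DMSO+PGE2 (100%) and DMSO alone (0%), from z-stack images. Mouse m-IMCD3 spheroids grew in collagen I/Matrigel gels and received PGE2 (100 nM final) with test compound (0.1% DMSO) starting 18–24 h post-plating, media refreshed at day 2 or 3.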

Compared with CC(C)(CC(=O)N1CCc2nc(N3C4CCC3CNC4)sc2C1)C(F)F [Example 175, 1-(2-(3,8-diazabicyclo[3.2.1]octan-8-yl)-6,7-dihydrothiazolo[5,4-c]pyridin-5(4H)-yl)-4,4-difluoro-3,3-dimethylbutan-1-one], CC(C)(C#N)CC(=O)N1CCc2nc(N3C4CCC3CNC4)sc2C1 [Example 178, 4-(2-(3,8-diazabicyclo[3.2.1]octan-8-yl)-6,7-dihydrothiazolo[5,4-c]pyridin-5(4H)-yl)-2,2-dimethyl-4-oxobutanenitrile] is higher in activity at 3 µM: -5% for the first, 24% for the second.

Compared with CC(C)(C)[C@@H](O)C(=O)N1CCc2nc(N3C4CCC3CNC4)sc2C1 [Example 176, (2R)-1-(2-(3,8-diazabicyclo[3.2.1]octan-8-yl)-6,7-dihydrothiazolo[5,4-c]pyridin-5(4H)-yl)-2-hydroxy-3,3-dimethylbutan-1-one], O=C([C@H](O)C1CCCCC1)N1CCc2nc(N3C4CCC3CNC4)sc2C1 [Example 177, (2R)-1-(2-(3,8-diazabicyclo[3.2.1]octan-8-yl)-6,7-dihydrothiazolo[5,4-c]pyridin-5(4H)-yl)-2-cyclohexyl-2-hydroxyethan-1-one] is lower in activity at 3 µM: 12% for the first, -2% for the second.

Compared with O=C(C1Cc2ccccc2O1)N1CCc2nc(N3C4CCC3CNC4)sc2C1 (stereo not shown) [Example 179, (2-(3,8-diazabicyclo[3.2.1]octan-8-yl)-6,7-dihydrothiazolo[5,4-c]pyridin-5(4H)-yl)(2,3-dihydrobenzofuran-2-yl)methanone], O=C(C1CCc2ccccc2O1)N1CCc2nc(N3C4CCC3CNC4)sc2C1 (stereo not shown) [Example 181, (2-(3,8-diazabicyclo[3.2.1]octan-8-yl)-6,7-dihydrothiazolo[5,4-c]pyridin-5(4H)-yl)(chroman-2-yl)methanone] is higher in activity at 3 µM: 2% for the first, 5% for the second.

Compared with O=C(C1COc2ccccc2O1)N1CCc2nc(N3C4CCC3CNC4)sc2C1 (stereo not shown) [Example 180, (2-(3,8-diazabicyclo[3.2.1]octan-8-yl)-6,7-dihydrothiazolo[5,4-c]pyridin-5(4H)-yl)(2,3-dihydrobenzo[b][1,4]dioxin-2-yl)methanone], O=C(C1COc2ccccc2C1)N1CCc2nc(N3C4CCC3CNC4)sc2C1 (stereo not shown) [Example 182, (2-(3,8-diazabicyclo[3.2.1]octan-8-yl)-6,7-dihydrothiazolo[5,4-c]pyridin-5(4H)-yl)(chroman-3-yl)methanone] is lower in activity at 3 µM: 2% for the first, 1% for the second.

First: O=C(C1Cc2ccccc2CO1)N1CCc2nc(N3C4CCC3CNC4)sc2C1 (stereo not shown) [Example 183, (2-(3,8-diazabicyclo[3.2.1]octan-8-yl)-6,7-dihydrothiazolo[5,4-c]pyridin-5(4H)-yl)(isochroman-3-yl)methanone]
Second: Cc1ccccc1C(=O)N1CCc2nc(N3C4CCC3CNC4)sc2C1 [Example 194, (2-(3,8-diazabicyclo[3.2.1]octan-8-yl)-6,7-dihydrothiazolo[5,4-c]pyridin-5(4H)-yl)(o-tolyl)methanone]
The activity at 3 µM of the first is lower: 0% for the first, 1% for the second.

Going from O=C(c1cc2ccccc2o1)N1CCc2nc(N3C4CCC3CNC4)sc2C1 [Example 185, (2-(3,8-diazabicyclo[3.2.1]octan-8-yl)-6,7-dihydrothiazolo[5,4-c]pyridin-5(4H)-yl)(benzofuran-2-yl)methanone] to O=C(c1nc2ccccc2o1)N1CCc2nc(N3C4CCC3CNC4)sc2C1 [Example 190, (2-(3,8-diazabicyclo[3.2.1]octan-8-yl)-6,7-dihydrothiazolo[5,4-c]pyridin-5(4H)-yl)(benzo[d]oxazol-2-yl)methanone], the activity at 3 µM rises from -2% to 1%.

First: O=C(c1nccc2ccccc12)N1CCc2nc(N3C4CCC3CNC4)sc2C1 [Example 186, (2-(3,8-diazabicyclo[3.2.1]octan-8-yl)-6,7-dihydrothiazolo[5,4-c]pyridin-5(4H)-yl)(isoquinolin-1-yl)methanone]
Second: O=C(c1cc2ccccc2cn1)N1CCc2nc(N3C4CCC3CNC4)sc2C1 [Example 192, (2-(3,8-diazabicyclo[3.2.1]octan-8-yl)-6,7-dihydrothiazolo[5,4-c]pyridin-5(4H)-yl)(isoquinolin-3-yl)methanone]
The activity at 3 µM of the first is lower: 0% for the first, 1% for the second.

Compared with O=C(c1coc2ccccc12)N1CCc2nc(N3C4CCC3CNC4)sc2C1 [Example 187, (2-(3,8-diazabicyclo[3.2.1]octan-8-yl)-6,7-dihydrothiazolo[5,4-c]pyridin-5(4H)-yl)(benzofuran-3-yl)methanone], O=C(c1ccccc1)N1CCc2nc(N3C4CCC3CNC4)sc2C1 [Example 193, (2-(3,8-diazabicyclo[3.2.1]octan-8-yl)-6,7-dihydrothiazolo[5,4-c]pyridin-5(4H)-yl)(phenyl)methanone] is higher in activity at 3 µM: -8% for the first, -1% for the second.

First: O=C(c1cc2ccccc2[nH]1)N1CCc2nc(N3C4CCC3CNC4)sc2C1 [Example 188, (2-(3,8-diazabicyclo[3.2.1]octan-8-yl)-6,7-dihydrothiazolo[5,4-c]pyridin-5(4H)-yl)(1H-indol-2-yl)methanone]
Second: Cn1c(C(=O)N2CCc3nc(N4C5CCC4CNC5)sc3C2)cc2ccccc21 [Example 189, (2-(3,8-diazabicyclo[3.2.1]octan-8-yl)-6,7-dihydrothiazolo[5,4-c]pyridin-5(4H)-yl)(1-methyl-1H-indol-2-yl)methanone]
The activity at 3 µM of the first is higher: 3% for the first, -1% for the second.

Compared with Cc1cccc(C(=O)N2CCc3nc(N4C5CCC4CNC5)sc3C2)c1 [Example 195, (2-(3,8-diazabicyclo[3.2.1]octan-8-yl)-6,7-dihydrothiazolo[5,4-c]pyridin-5(4H)-yl)(m-tolyl)methanone], Cc1ccc(C(=O)N2CCc3nc(N4C5CCC4CNC5)sc3C2)cc1 [Example 196, (2-(3,8-diazabicyclo[3.2.1]octan-8-yl)-6,7-dihydrothiazolo[5,4-c]pyridin-5(4H)-yl)(p-tolyl)methanone] is lower in activity at 3 µM: 1% for the first, -1% for the second.

First: COc1ccccc1C(=O)N1CCc2nc(N3C4CCC3CNC4)sc2C1 [Example 197, (2-(3,8-diazabicyclo[3.2.1]octan-8-yl)-6,7-dihydrothiazolo[5,4-c]pyridin-5(4H)-yl)(2-methoxyphenyl)methanone]
Second: O=C(c1ccccn1)N1CCc2nc(N3C4CCC3CNC4)sc2C1 [Example 201, (2-(3,8-diazabicyclo[3.2.1]octan-8-yl)-6,7-dihydrothiazolo[5,4-c]pyridin-5(4H)-yl)(pyridin-2-yl)methanone]
The activity at 3 µM of the first is lower: 4% for the first, 17% for the second.

Compared with O=C(c1ccc(F)cc1)N1CCc2nc(N3C4CCC3CNC4)sc2C1 [Example 198, (2-(3,8-diazabicyclo[3.2.1]octan-8-yl)-6,7-dihydrothiazolo[5,4-c]pyridin-5(4H)-yl)(4-fluorophenyl)methanone], O=C(c1ccc(F)nc1)N1CCc2nc(N3C4CCC3CNC4)sc2C1 [Example 200, (2-(3,8-diazabicyclo[3.2.1]octan-8-yl)-6,7-dihydrothiazolo[5,4-c]pyridin-5(4H)-yl)(6-fluoropyridin-3-yl)methanone] is higher in activity at 3 µM: -5% for the first, 4% for the second.

Compound O=C(c1cccc(C(F)F)c1)N1CCc2nc(N3C4CCC3CNC4)sc2C1 [Example 199, (2-(3,8-diazabicyclo[3.2.1]octan-8-yl)-6,7-dihydrothiazolo[5,4-c]pyridin-5(4H)-yl)(3-(difluoromethyl)phenyl)methanone] has an activity at 3 µM of 3%.
